# Where “and” joins values, the source holds several entries; their conditions need not be identical. Equal values may be shown once.
# Assays:
# VEGFR-2 = target: T1, VEGFR-2 (Homo sapiens, UniProt P35968); experiment: In vitro VEGFR-2 inhibition assay (ELISA kit); assay type: biochemical; conditions: read-out: IC50 (mean ± SD)
# T1 construct: purchased Ray Biotech
# Protocol: Quinazolinone-based targets 1, 6b, 8a, and 10 were chosen for further evaluation of their in vitro inhibitory activity against EGFR and VEGFR-2 because of their exceptional cytotoxic outcomes, with the goal of clarifying their mode of action. […]. VEGFR-2 assay: the effect of the most promising cytotoxic compounds 1, 6b, 8a, and 10 was evaluated for their in vitro inhibitory activity against Human VEGFR-2 using ELISA kit according to manufacturer's instructions (Ray Biotech). This assay employs an antibody specific for human VEGFR-2 coated on a 96-well plate. Samples and standards were added to the wells and incubated over night at 4 °C with gentle shaking. The wells were washed and biotinylated antibody was added followed by incubation for one hour at room temperature. After washing away unbound biotinylated antibody, HRP conjugated streptavidin was pipetted to the wells and
# incubated at room temperature for 45 min. The wells were then washed; TMB substrate solution was added and incubated for 30 min. The color developed was in proportion to the amount of VEGFR-2 bound. The Stop Solution was added and the intensity of the color was measured at 450 nm. Percent inhibition was calculated by the comparison of compounds treated to control incubations. […]
# MCF-7 cells [1] = experiment: Apoptosis detection, annexin V-FITC/PI flow cytometry; assay type: cell-based, human
# Protocol: (§1) The treated cells were subsequently analyzed using flow cytometry and annexin-V labeling (Fig. 4, 5, 6).
# (§2) Using flow cytometry, the investigation of cell cycle analysis and apoptosis was described[79],[81]. After applying quinazolinone-furan-benzo[b][1,4]diazepine 6b to MCF-7 cells for 24 h, the cells were incubated at 37 °C. The supplemental file contained more information.
# (§3) Cell cycle analysis and apoptosis study were carried out using ab139418–Propidium Iodide Flow Cytometry Kit for Cell Cycle Analysis. MCF-7 cells were seeded at 8×10^4 and incubated at 37°C in 5% CO2 overnight. After treatment with the tested compound 10 for 24 h, cell pellets were collected and centrifuged (300 g, 5 min). For cell cycle analysis, cell pellets were fixed with 70% ethanol on ice for 15 min and collected again. The pellets were incubated with propidium iodide (PI) staining solution at room temperature for 1 h and analyzed by a Gallios flow cytometer (Beckman Coulter, Brea, CA, USA). Apoptosis detection was carried out by FITC AnnexinV/PI commercial kit (Becton Dickenson, Franklin Lakes, NJ, USA) following the manufacturer protocol. The samples were analyzed by fluorescence-activated cell sorting (FACS) with a Gallios flow cytometer (Beckman Coulter, Brea, CA, USA) within 1 h after staining. Data were analyzed using Kaluza v 1.2 (Beckman Coulter).
# EGFR = target: T2, EGFR (Homo sapiens, UniProt P00533); experiment: In vitro EGFR inhibition assay; assay type: biochemical
# T2 construct: purchased Abcam
# T2 sequence (P00533 25-1210): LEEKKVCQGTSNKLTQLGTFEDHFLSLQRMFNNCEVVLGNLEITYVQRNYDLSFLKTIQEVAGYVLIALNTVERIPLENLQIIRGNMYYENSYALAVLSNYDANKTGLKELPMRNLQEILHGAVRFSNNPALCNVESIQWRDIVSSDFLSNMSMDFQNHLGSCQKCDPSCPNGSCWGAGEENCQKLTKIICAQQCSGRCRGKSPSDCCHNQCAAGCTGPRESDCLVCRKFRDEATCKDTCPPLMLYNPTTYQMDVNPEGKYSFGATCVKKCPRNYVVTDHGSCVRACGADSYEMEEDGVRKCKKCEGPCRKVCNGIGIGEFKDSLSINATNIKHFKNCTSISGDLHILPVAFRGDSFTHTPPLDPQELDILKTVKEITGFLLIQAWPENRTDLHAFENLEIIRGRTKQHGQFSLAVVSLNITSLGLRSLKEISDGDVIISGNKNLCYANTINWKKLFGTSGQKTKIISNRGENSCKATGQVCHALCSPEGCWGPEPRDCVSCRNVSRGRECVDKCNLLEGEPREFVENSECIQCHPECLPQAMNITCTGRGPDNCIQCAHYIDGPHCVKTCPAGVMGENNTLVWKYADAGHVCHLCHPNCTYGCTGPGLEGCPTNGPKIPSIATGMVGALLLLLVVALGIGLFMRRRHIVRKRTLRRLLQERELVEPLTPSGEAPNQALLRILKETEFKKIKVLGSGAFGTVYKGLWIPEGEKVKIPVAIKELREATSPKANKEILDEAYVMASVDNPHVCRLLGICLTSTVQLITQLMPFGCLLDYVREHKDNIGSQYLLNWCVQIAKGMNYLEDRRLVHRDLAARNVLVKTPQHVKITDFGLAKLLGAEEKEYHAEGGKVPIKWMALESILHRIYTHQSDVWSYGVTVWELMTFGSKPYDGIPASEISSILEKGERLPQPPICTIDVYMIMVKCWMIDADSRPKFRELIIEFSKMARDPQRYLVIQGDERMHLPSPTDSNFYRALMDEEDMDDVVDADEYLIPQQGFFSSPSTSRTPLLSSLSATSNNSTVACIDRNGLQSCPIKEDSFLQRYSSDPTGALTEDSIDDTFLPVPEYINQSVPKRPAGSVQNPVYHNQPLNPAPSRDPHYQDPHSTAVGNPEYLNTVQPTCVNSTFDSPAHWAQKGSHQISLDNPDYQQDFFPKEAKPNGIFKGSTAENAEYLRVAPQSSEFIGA
# WI-38 cells = experiment: MTT cytotoxicity assay, normal WI-38; assay type: cell-based; conditions: Homo sapiens; normal WI-38, MTT assay; read-out: IC50 (mean ± SD)
# Protocol: . […]. Furthermore, the MTT assay was employed to examine the safety profiles of the cytotoxic activity against the normal human diploid cell line WI-38 (Table 1). […]. They could therefore be considered safe chemotherapeutic agents.
# (§4) Following the published protocol[75]–[77], the cytotoxic effects of the newly synthesized quinazolinones 1–10 were assessed in vitro using the MTT test method on human liver HepG-2, breast MCF-7, colorectal HCT-116 cancer cell lines, and normal diploid cell line WI-38. There were further details in the supplemetary file.
# (§5) The cell lines were obtained from Karolinska Center, Department of Oncology and Pathology, Karolinska Institute and Hospital, Stockholm, Sweden, as follows: human liver HepG-2, breast MCF-7, and colorectal HCT-116 cancer cell lines and human diploid cell line WI-38. Exponentially, cells were placed in 10^4 cells/ well for 24 h, and then fresh medium containing different concentrations of the tested sample. two-fold serial dilution of the tested sample was added using a multichannel pipette. Moreover, all cells were cultivated at 37 °C, 5% CO2 and 95% humidity. Also, incubation of control cells occurred at 37 °C. However, after incubation for 24 h different concentrations of the sample (100, 50, 25, 12.5, 6.25, 3.125, and 1.56 µM) were added, and continued the incubation for 48 h, then, add the crystal violet solution of 1% to each well for 0.5 h to examine viable cells. Rinse the wells using water until no stain. After that, add 30% glacial acetic acid to all wells with shaking plates on a Microplate reader (TECAN, Inc.) to measure the absorbance, using a test wavelength of 490 nm. Besides, compare the treated samples with the control cell. The cytotoxicity was estimated by IC50 in (μM), the concentration that inhibits 50% of growth of cancer cell.
# HCT-116 cells = experiment: MTT cytotoxicity assay, HCT-116; assay type: cell-based; conditions: Homo sapiens; HCT-116, MTT assay; read-out: IC50 (mean ± SD)
# Protocol: as §4, §5
# MCF-7 cells [2] = experiment: MTT cytotoxicity assay, MCF-7; assay type: cell-based; conditions: Homo sapiens, MCF7; MCF-7, MTT assay; read-out: IC50 (mean ± SD)
# Protocol: as §4, §5
# HepG-2 cells = experiment: MTT cytotoxicity assay, HepG-2; assay type: cell-based; conditions: Homo sapiens, HepG2; HepG-2, MTT assay; read-out: IC50 (mean ± SD)
# Protocol: as §4, §5
# Bax = Bax level in MCF-7 cells; assay type: cell-based, human; conditions: MCF-7, 3.91 μM, 24 h
# From the text: (§6) The extrinsic pathway, which is controlled by the death receptor, and the intrinsic pathway, which is handled by the mitochondria, are the two primary mechanisms that govern the cell during apoptosis. The two proteins Bcl-2 and Bax can alter this planned process due to their respective roles as […] (inducer), and the balance between them adjusts cell death. A further vital component that either causes cell death or prevents cell proliferation is the tumor suppressor gene, p53. […] Furthermore, compound 6b increased the amount of p53 protein in MCF-7 treated cells by 7.2 times, while control cells only had 119.65 Pg/mL (Table 3).
# (§7) For the promising quinazolinone-furan-benzo[b][1,4]diazepine 6b, the Bax, Bcl-2, and p53 levels in MCF-7 cells were elucidated using the previously disclosed method.
# The magnitudes of the apoptotic proteins; BAX and Bcl-2 were evaluated using BIORAD iScript TM One-Step RT-PCR kit with SYBR®Green (BIO-RAD Laboratories, Hercules, CA, US). The method of the applied kit was conducted according to the manufacturer’s protocol and previously reported method. First, mRNA isolation is done using RNeasy extraction kit, up to 1 × 10^7 cells, depending on the cell line. Then Cells were exposed to RNeasy Lysis Buffer (RLT buffer) and homogenized, while ethanol was then supplemented to the mixture to allow selective binding of RNA to the RNeasy membrane. Afterwards, the sample was loaded to the RNeasy mini spin column where total RNA was bound to the membrane while contaminants competently passed through, and high-quality RNA was eluted in RNase-free water. Then, the reaction mixture was incubated in a real-time thermal detection system (Rotorgene) as follows: cDNA synthesis: 10 min at 50 ◦C, iScript reverse transcriptase inactivation: 5 min at 95 ◦C, polymerase chain reaction (PCR) cycling and detection (30–45 cycles): 10s at 95 ^◦C and 30 s at 55 ^◦C to 60 ^◦C (data collection step) and melt curve analysis: 1 min at 95 ◦C and 1 min at 55 ^◦C and 10s at 55 ^◦C (80 cycles, increasing each by 0.5 ^◦C each cycle).
# [3] = tested on: HepG-2, HCT-116 and MCF-7 cell lines; experiment: MTT cytotoxicity, all screened cancer cell lines together (SAR summary); assay type: cell-based, human; conditions: HepG-2, HCT-116 and MCF-7 cell lines
# Protocol: […]. In addition, replacement of acetyl group in 2 with pyrazoline moiety with free N-1 in 7 or bound to thiazole in 9, yielded weak activity.
# as §4, §5
# Bcl-2 = Bcl-2 level in MCF-7 cells; assay type: cell-based, human; conditions: MCF-7, 3.91 μM, 24 h
# From the text: as §6, §7
# The magnitudes of the apoptotic proteins; BAX and Bcl-2 were evaluated using BIORAD iScript TM One-Step RT-PCR kit with SYBR®Green (BIO-RAD Laboratories, Hercules, CA, US). The method of the applied kit was conducted according to the manufacturer’s protocol and previously reported method. First, mRNA isolation is done using RNeasy extraction kit, up to 1 × 10^7 cells, depending on the cell line. Then Cells were exposed to RNeasy Lysis Buffer (RLT buffer) and homogenized, while ethanol was then supplemented to the mixture to allow selective binding of RNA to the RNeasy membrane. […]
# p53 = p53 level in MCF-7 cells (ELISA); assay type: cell-based, human; conditions: MCF-7, 3.91 μM, 24 h
# From the text: as §6, §7
# Human p53 present in MCF-7 cells was determined; using Human p53 ELISA-Kit (CS0070 Sigma) read using spectrophotometer at 450 nm against untreated control cells (negative control) applying the standard protocols of the manufacturers. The samples or standard having human p53 bind to antibodies adsorbed to the microwells. Addition of biotin-conjugated was followed by incubation and addition of dispense of unbound biotin-conjugated streptavidin HRP. Then, the reaction was terminated by adding acid, and the absorbance was measured at 450 nm.
# MCF-7 cells [4] = experiment: Cell cycle analysis by flow cytometry (PI); assay type: cell-based, human; conditions: MCF-7, 3.91 μM, 24 h
# Protocol: as §1, §2, §3
# T1 sequence (P35968 20-1356): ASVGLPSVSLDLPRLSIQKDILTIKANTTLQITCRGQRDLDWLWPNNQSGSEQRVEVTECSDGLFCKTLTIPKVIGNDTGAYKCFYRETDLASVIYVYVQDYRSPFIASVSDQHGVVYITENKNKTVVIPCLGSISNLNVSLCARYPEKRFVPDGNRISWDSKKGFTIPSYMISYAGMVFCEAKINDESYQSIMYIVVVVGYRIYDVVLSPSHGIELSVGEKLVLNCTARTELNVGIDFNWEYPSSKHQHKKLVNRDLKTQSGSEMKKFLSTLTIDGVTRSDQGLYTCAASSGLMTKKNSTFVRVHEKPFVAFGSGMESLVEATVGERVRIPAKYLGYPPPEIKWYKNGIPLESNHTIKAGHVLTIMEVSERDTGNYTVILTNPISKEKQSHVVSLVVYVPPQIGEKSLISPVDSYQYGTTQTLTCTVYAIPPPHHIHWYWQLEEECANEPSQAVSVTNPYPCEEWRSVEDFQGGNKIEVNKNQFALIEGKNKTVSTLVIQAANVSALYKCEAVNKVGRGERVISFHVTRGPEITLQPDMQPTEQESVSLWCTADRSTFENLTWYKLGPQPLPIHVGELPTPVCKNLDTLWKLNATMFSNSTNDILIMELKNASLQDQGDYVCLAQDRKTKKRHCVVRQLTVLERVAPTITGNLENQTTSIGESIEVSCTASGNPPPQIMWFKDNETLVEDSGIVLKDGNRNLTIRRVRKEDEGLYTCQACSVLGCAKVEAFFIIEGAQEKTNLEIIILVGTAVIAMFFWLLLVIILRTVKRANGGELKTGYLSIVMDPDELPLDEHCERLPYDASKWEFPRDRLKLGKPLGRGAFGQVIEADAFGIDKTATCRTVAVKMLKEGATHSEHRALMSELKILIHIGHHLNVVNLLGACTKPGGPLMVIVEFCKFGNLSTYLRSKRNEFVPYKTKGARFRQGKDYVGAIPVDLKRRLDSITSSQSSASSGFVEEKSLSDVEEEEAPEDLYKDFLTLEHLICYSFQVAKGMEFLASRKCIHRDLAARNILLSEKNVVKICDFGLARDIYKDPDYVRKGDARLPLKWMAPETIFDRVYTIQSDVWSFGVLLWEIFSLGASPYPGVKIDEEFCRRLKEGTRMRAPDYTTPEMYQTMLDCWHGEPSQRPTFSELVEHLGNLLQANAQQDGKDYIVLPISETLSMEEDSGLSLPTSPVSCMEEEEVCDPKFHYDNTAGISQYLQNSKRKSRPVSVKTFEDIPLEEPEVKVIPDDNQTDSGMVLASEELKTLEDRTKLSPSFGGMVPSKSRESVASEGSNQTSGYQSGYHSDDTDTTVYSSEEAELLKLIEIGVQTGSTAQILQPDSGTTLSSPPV
compound,measurement,setting,value
"Cc1occ(Sc2nc3ccccc3c(=O)n2-c2ccccc2)c1C1CC(c2ccco2)Nc2ccccc2N1 (centres unmarked) [Compound 6b, 2-((4-(4-(Furan-2-yl)-2,3,4,5-tetrahydro-1H-benzo[b][1,4]diazepin-2-yl)-5-methylfuran-3-yl)thio)-3-phenylquinazolin-4(3H)-one]",IC50,VEGFR-2,31.6 ± 1.48 µM
same,Apoptosis Early,"MCF-7 cells [1]; MCF-7, 3.91 μM, 24 h",8.92%
same,Apoptosis Late,"MCF-7 cells [1]; MCF-7, 3.91 μM, 24 h",15.39%
same,Apoptosis Total,"MCF-7 cells [1]; MCF-7, 3.91 μM, 24 h",29.76
same,Necrosis,"MCF-7 cells [1]; MCF-7, 3.91 μM, 24 h",5.45%
same,apoptosis in MCF-7 cells as stated in abstract and conclusion,"MCF-7 cells [1]; MCF-7, flow cytometry",35.29%
same,selectivity EGFR over VEGFR-2,EGFR; EGFR versus VEGFR-2,substantially more selective for EGFR than VEGFR-2
same,IC50,"EGFR; EGFR, read-out: IC50 (mean ± SD)",0.19 ± 0.03 µM
same,IC50,WI-38 cells,41.3 ± 2.5 µM
same,IC50,HCT-116 cells,7.97 ± 0.5 µM
same,IC50,MCF-7 cells [2],3.91 ± 0.2 µM
same,IC50,HepG-2 cells,5.8 ± 0.4 µM
same,Bax,Bax,241.60 pg/mL and 241.6 ± 1.33 pg/mL
same,Bax/Bcl-2,Bax,85.67
same,rise in Bax levels versus untreated control,Bax,6.3 fold
same,cytotoxic activity in words (SAR study),[3],Excellent activity
same,Bcl-2,Bcl-2,2.82 ng/mL and 2.82 ± 0.11 ng/mL
same,Bcl-2 protein downregulated versus control,Bcl-2,2.6 times
same,P53,p53,860.55 ± 2.47 pg/mL
same,increase of p53 protein versus control,p53,7.2 times
same,%G0-G1,MCF-7 cells [4],46.68%
same,%G2/M,MCF-7 cells [4],35.29%
same,%S,MCF-7 cells [4],18.03%

# — publication PMC12314051, “Design, antiproliferative potency, and in silico studies of novel 5-methylfuran-3-yl)thio)-3-phenylquinazolin-4(3H)-one based derivatives as potential EGFR inhibitors” (Scientific Reports, 2025)
